In US20230364063A1, “ORAL PHARMACEUTICAL COMPOSITION AND METHOD FOR PRODUCING SAME” (ARTham Therapeutics Inc., priority 2020, published 2023):
Converted amounts (≈) assume the structure as drawn. Where two headings read alike, the source gives them in different places. One block for each molecule: values may come before it.

Key:
[1] = healthy adults, cited from earlier work
[2] = pH-dependent dissolution profile (equilibrium solubility) of ART-001 in buffers pH 1 to 10, HPLC; assay type: physicochemical; conditions: for solubility: aqueous buffer, thermodynamic from solid, room temperature
Method: The dissolution profile of ART-001 in various pH environments was tested by the following procedure. Excess amounts of ART-001 were added to 50 mM phosphate buffer (pH 1, 2, 7, and 8), citrate buffer (pH 3, 4, 5, and 6), boric acid buffer (pH 9), and bicarbonate buffer (pH 10), with the pH adjusted variously in the range of from pH 1 to pH 10 with a 6N HCl or 10N sodium hydroxide solution, and stirred at room temperature. When the dissolved state reached equilibrium, a fixed amount of each sample was taken. After centrifugation at 1000 rpm for 10 minutes, the supernatant was collected and measured by HPLC. The pH at the beginning and end of dissolution were also measured and recorded.

[3] = cited from earlier work
advanced solid tumors = conditions: Phase I, patients with advanced solid tumors; cited from earlier work
[4] = cited from earlier work; remark: listed apart in the source
[5] = cited from earlier work; remark: listed apart in the source

solubility ([2]; bicarbonate buffer, start pH 10.00, end pH 10.07, read-out: Solubility): 2.18 µg/mL (≈ 6 µM)
solubility ([2]; boric acid buffer, start pH 9.00, end pH 9.16, read-out: Solubility): 1.3 µg/mL (≈ 3.58 µM)
solubility ([2]; citrate buffer, start pH 3.17, end pH 3.33, read-out: Solubility): 36.8 µg/mL (≈ 101 µM)
solubility ([2]; citrate buffer, start pH 4.00, end pH 4.19, read-out: Solubility): 5.7 µg/mL (≈ 15.7 µM)
solubility ([2]; citrate buffer, start pH 5.03, end pH 5.2, read-out: Solubility): 1.7 µg/mL (≈ 4.68 µM)
solubility ([2]; citrate buffer, start pH 5.95, end pH 6.11, read-out: Solubility): 1.3 µg/mL (≈ 3.58 µM)
solubility ([2]; citrate, phosphate, boric acid and bicarbonate buffers, pH 6 or higher, read-out: solubility under high pH conditions): 1.3 µg/mL (≈ 3.58 µM)
solubility under high pH conditions when the solubility under low pH conditions is considered to be 100% ([2]; pH 6 or higher vs pH 2.5 or lower): about 4%
solubility ([2]; phosphate buffer, pH 2.5 or lower, read-out: solubility under low pH conditions): 312 to 10000 µg/mL (≈ 859 to 27500 µM)
solubility ([2]; phosphate buffer, start pH 1.04, end pH 1.33, read-out: Solubility): 1140 µg/mL (≈ 3130 µM)
solubility ([2]; phosphate buffer, start pH 2.09, end pH 2.56, read-out: Solubility): 312 µg/mL (≈ 859 µM)
solubility ([2]; phosphate buffer, start pH 6.81, end pH 6.97, read-out: Solubility): 1.2 µg/mL (≈ 3.3 µM)
solubility ([2]; phosphate buffer, start pH 8.15, end pH 8.3, read-out: Solubility): 1.3 µg/mL (≈ 3.58 µM)
Compound: Nc1nc2cc(-c3ccc4ncc(C(=O)N5CCOCC5)n4c3)ccc2o1 [ART-001, Serabelisib]
absorption of ART-001 ([1]; co-administration of proton pump inhibitor (lansoprazole), stomach pH neutral): markedly decreased
pharmacokinetic variability [1]: significant pharmacokinetic variability
solubility in acidic solutions ([3]; acidic solutions): high solubility
solubility in neutral to basic solutions ([3]; neutral to basic solutions): extremely low solubility
therapeutic efficacy (advanced solid tumors): limited therapeutic efficacy
variability in pharmacokinetics (advanced solid tumors): high degree of variability

Compound: Cc1nc(NC(=O)N2CCC[C@H]2C(N)=O)sc1-c1ccnc(C(C)(C)C(F)(F)F)c1 [alperisib, Alpelisib]
solubility [4]: pH-dependent solubility
pharmacokinetics in clinical studies [5]: variations in pharmacokinetics
